Reference: paper PMC8621770, “New Compounds with Bioisosteric Replacement of Classic Choline Kinase Inhibitors Show Potent Antiplasmodial Activity” (Pharmaceutics, 2021)
Like-named read-outs stand apart in the source and are kept apart here.

Columns and labels:
P. falciparum strain 3D7 = test: Antimalarial activity, P. falciparum lactate dehydrogenase growth inhibition assay; type: cell-based, Plasmodium falciparum; conditions: for IC50: Plasmodium falciparum
Protocol: Parasites of the P. falciparum strain 3D7 were grown in fresh group 0 positive human erythrocytes, obtained from the Centro Regional de Transfusion Sanguínea-SAS (Granada, Spain) and suspended at 5% haematocrit in RPMI 1640 containing 2% human serum, 0.2% NaHCO3, 0.5% Albumax II, 150 μM hypoxanthine, and […] gentamicin. Flasks were incubated at 37 °C, under 5% CO2 and 95% air mixture. […] The stock culture was then diluted with complete medium and non-parasitized erythrocytes to yield a haematocrit of 2% and parasitemia of 0.25%. Stock solutions of the test drugs were prepared at an initial concentration of 200 mM in DMSO, serially diluted and dispensed into triplicate in 96-well plates to yield final concentrations ranging from 0.0039 to 2 μM. The final well volume was 200 μL with a final concentration of DMSO 0.001%. Each plate also included positive growth controls, where only medium were added, and negative growth controls with 100 nM of chloroquine. […] A multidrop dispenser was used to add 50 μL of synchronized parasite culture per well. After 72 h of growth in presence of test compounds, the plates were stored frozen at −20 °C for at least 24 h. Next, they were thawed at room temperature. Parasite growth inhibition assays and IC50 determinations were carried out following the P. falciparum lactate dehydrogenase assay where parasite viability is quantified by measuring LDH activity upon APAD+ addition, a cofactor that is specific to the Plasmodium enzyme. To evaluate LDH activity, 140 μL of freshly made reaction mix, containing 143 mM sodium L-lactate, 143 μM APAD, 178.75 μM NBT, 1 U/mL diaphorase, 0.7% Tween 20 and 100 mM Tris-HCl (pH 8.0) were dispensed into plates. After 10 min of incubation in the dark at room temperature, absorbance was measured at 630 nm with a vmax precision multiwell plate reader from Molecular Devices, by using the accompanying SOFT maxPro software for analysis.

PfCK = molecular target: T1, PfCK (Plasmodium falciparum, UniProt Q8IM71); test: Spectrophotometric coupled enzymatic assay for PfCK activity (substrate choline); type: biochemical; conditions: for remaining activity at 25 µM: read-out: PfCK Fractional Activity at 25 µM; for IC50: IC50 PfCK b (compound concentration required to inhibit PfCK enzyme by 50%), substrate choline 4 mM, ATP 2 mM
T1 construct: A truncated form of PfCK (Δ79-440) featuring an N-terminal 6× His-tag; 6xHis (N); host or cells: Escherichia coli BL21 (DE3) Star
T1 sequence (Q8IM71 entry or part of it): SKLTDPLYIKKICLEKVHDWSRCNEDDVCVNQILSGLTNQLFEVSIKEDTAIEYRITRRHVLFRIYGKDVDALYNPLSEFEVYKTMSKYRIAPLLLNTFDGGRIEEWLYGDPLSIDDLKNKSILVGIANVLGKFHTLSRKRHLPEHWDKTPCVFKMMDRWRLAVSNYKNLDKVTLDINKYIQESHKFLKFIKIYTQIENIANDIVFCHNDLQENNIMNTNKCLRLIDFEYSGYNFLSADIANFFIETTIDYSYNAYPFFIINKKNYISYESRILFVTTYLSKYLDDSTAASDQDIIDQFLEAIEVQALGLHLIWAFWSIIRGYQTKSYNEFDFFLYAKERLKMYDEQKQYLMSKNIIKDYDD
Protocol: A truncated form of PfCK (Δ79-440) featuring an N-terminal 6× His-tag was purchased from Genescript (Piscataway, NJ, USA), cloned into a pET-28a vector and transformed into Escherichia coli BL21 (DE3) Star cells (Invitrogen, Carlsbad, CA, USA). The transformed bacteria were cultured in Luria-Bertani (LB) medium at 37 °C until OD600 = 0.6 and the expression was induced with 1 mM isopropyl β-D-1-thiogalactopyranoside (IPTG). The cell culture was grown overnight at 20 °C and 180 rpm. Cells were pelleted by centrifugation at 10,000 rpm, resuspended in 50 mM Tris/HCl pH 7.5, 500 mM NaCl, 0.2 mM phenylmethylsulphonyl fluoride (PMSF, Sigma Aldrich, St. Luis, MO, USA), DNase (Sigma Aldrich, St. Luis, MO, USA), 0.5 mM β-mercaptoethanol (Sigma Aldrich, St. Luis, MO, USA) and sonicated. Separation of the soluble from the insoluble fraction was obtained by centrifugation at 15,000 rpm and 4 °C. The target enzyme was purified by a two-step purification protocol. In the first step, the cell lysate was incubated for 45 min with Ni-NTA resin (Qiagen, Venlo, The Netherlands) in a gravity column. Then, the column was washed with 40 column volumes (CV) of 50 mM Tris/HCl pH 7.5, 300 mM NaCl, 10 mM imidazole and 1 CV of 50 mM Tris/HCl pH 7.5, 300 mM NaCl, 40 mM imidazole. Finally, the His-tagged enzyme was eluted from the column using a 50 mM Tris/HCl pH 7.5, 300 mM NaCl, 400 mM imidazole buffer. A subsequent size-exclusion chromatography step was implemented to further polish the sample using a HiPrep 26/60 Sephacryl 100 HR column (GE Healthcare, Little Chalfont, Buckinghamshire, UK) previously equilibrated with 20 mM Tris/HCl pH 7.5, 150 mM NaCl buffer. This second purification step afforded a pure protein sample. The protein production yield was estimated to be nearly 2.5 mg of recombinant enzyme per liter of bacterial culture.
A spectrophotometric 96-well plate assay for PfCK activity was established based on an assay previously described. The reaction mix was composed as follows: 100 mM Tris/HCl pH 7.5, 100 mM KCl, 10 mM MgCl2, 0.5 mM phosphoenolpyruvate, 0.25 mM NADH, 4 U of pyruvate kinase, 5 U lactate dehydrogenase, 2 mM ATP, 4 mM choline chloride and different concentrations of the selected compounds. All the necessary compounds for the assay were purchased from Sigma Aldrich (St. Luis, MO, USA) and the final assay volume was 200 μL. The enzymatic reaction was initiated by the addition of the enzyme at less than 10 nM concentration and the reaction rates were measured by monitoring the decrease in the absorbance at 340 nm for 20 min at room temperature using a Spark10M instrument (Tecan). Finally, the IC50 values for each compound were determined by plotting the enzyme fractional activity (f.a.) against the logarithm of compound concentration (log[I]). Curve-fitting was performed with a dose-response curve from Origin (OriginLab Corporation, Northampton, MA, USA), using the following equation: f.a.=1/1+10^logIC50−logI
All data points were collected in triplicate and the final dose-response curves were plotted with MATLAB (R2018a (9.4.0.813654), 2018, MathWorks, Natick, MA, USA). See curves in Figure S1 in Supplementary Materials.

[1] = Erythrocyte, P. falciparum 3D7 in human erythrocytes, 72 h, LDH readout, read-out: IC50 a (In vitro IC50 values against P. falciparum)

Structure (SMILES)	IC50 (P. falciparum strain 3D7; [1])	melting point	remaining activity at 25 µM (PfCK)	IC50 (P. falciparum strain 3D7; 3D7, Erythrocyte, 72 h, read-out: IC50 a (In vitro IC50 values against P. falciparum))	IC50 (PfCK)	IC50 (P. falciparum strain 3D7; 3D7, Erythrocyte, infected erythrocytes, P. falciparum, read-out: antimalarial activity (IC50), as given in the text)	fold decrease in antimalarial activity with respect to the reference compounds BR-23 / BR-25 (P. falciparum strain 3D7; Fg-9, Fa-21, Fg-14 vs BR-23, Ff-1, Ff-7, Ff-3 vs BR-25)
[Br-].[Br-].c1cc2c(s1)c(N1CCCCCC1)nc[n+]2Cc1ccc(-c2ccc(C[n+]3cnc(N4CCCCCC4)c4sccc43)cn2)nc1 [Fa-26, 1,1’-([2,2’-bipyridine]-5,5’-diylbis(methylene))bis(4-(azepan-1-yl)thieno[3,2-d]pyrimidin-1-ium) bromide]	209 nM	310 to 312 °C	78 ± 8.13%				
[Br-].[Br-].c1cc2c(s1)c(N1CCCCC1)nc[n+]2Cc1ccc(-c2ccc(C[n+]3cnc(N4CCCCC4)c4sccc43)cn2)nc1 [Fa-27, 1,1’-([2,2’-bipyridine]-5,5’-diylbis(methylene))bis(4-(piperidin-1-yl)thieno[3,2-d]pyrimidin-1-ium) bromide]	120 nM	307 to 309 °C	82.6 ± 4.9%				
[Br-].[Br-].c1cc2c(s1)c(N1CCCCC1)nc[n+]2Cc1ccc(OCCOc2ccc(C[n+]3cnc(N4CCCCC4)c4sccc43)cc2)cc1 [Fa-28, 1,1′-(((ethane-1,2-diylbis(oxy))bis(4,1-phenylene))bis(methylene))bis(4-(piperidin-1-yl)thieno[3,2-d]pyrimidin-1-ium) bromide]	47.1 nM	198 to 200 °C	84.4 ± 7.53%				
[Br-].[Br-].c1cc2c(s1)c(N1CCCCCC1)nc[n+]2Cc1ccc(CCCCc2ccc(C[n+]3cnc(N4CCCCCC4)c4sccc43)cc2)cc1 [Fa-29, (1,1’((butane1,4diylbis(4,1phenylene))bis(methylene))bis(4-(azepan-1-yl)thieno[3,2-d]pyrimidin-1-ium)) bromide]		268 to 270 °C	46.7 ± 9.49%	55.6 nM	4640 ± 200 nM		
[Br-].[Br-].c1cc2c(s1)c(N1CCCCC1)nc[n+]2Cc1ccc(CCCCc2ccc(C[n+]3cnc(N4CCCCC4)c4sccc43)cc2)cc1 [Fa-33, 1,1’-((butane-1,4-diylbis(4,1-phenylene))bis(methylene))bis(4-(piperidin-1-yl)thieno[3,2-d]pyrimidin-1-ium) bromide]	43.9 nM	276 to 278 °C	68.8 ± 6.03%				
[Br-].[Br-].c1cc2c(s1)c(N1CCCC1)cc[n+]2Cc1ccc(OCCOc2ccc(C[n+]3ccc(N4CCCC4)c4sccc43)cc2)cc1 [Ff-2, 4,4’-(((ethane-1,2-diylbis(oxy))bis(4,1-phenylene))bis(methylene))bis(7-(pyrrolidin-1-yl)thieno[3,2-b]pyridin-4-ium) bromide]	74 nM	280 to 282 °C	81.8 ± 3.93%				
[Br-].[Br-].c1cc2c(N3CCCC3)nc[n+](Cc3ccc(OCCOc4ccc(C[n+]5cnc(N6CCCC6)c6ccsc65)cc4)cc3)c2s1 [Ff-4, 1,1’-(((ethane-1,2-diylbis(oxy))bis(4,1-phenylene))bis(methylene))bis(4-(pyrrolidin-1-yl)thieno[2,3-d]pyrimidin-1-ium) bromide]	11.5 nM	193 to 195 °C	90.7 ± 4.57%		37400 ± 3240 nM	~11 nM	
[Br-].[Br-].c1cc2c(N3CCCCC3)nc[n+](Cc3ccc(OCCOc4ccc(C[n+]5cnc(N6CCCCC6)c6ccsc65)cc4)cc3)c2s1 [Ff-5, 1,1′-(((ethane-1,2-diylbis(oxy))bis(4,1-phenylene))bis(methylene))bis(4-(piperidin-1-yl)thieno[2,3-d]pyrimidin-1-ium) bromide]	22.4 nM	> 280 °C	91.1 ± 4.27%				
[Br-].[Br-].c1cc2c(s1)c(N1CCCC1)nc[n+]2Cc1ccc(CCCCc2ccc(C[n+]3cnc(N4CCCC4)c4sccc43)cc2)cc1 [Ff-7, 1,1’-((butane-1,4-diylbis(4,1-phenylene))bis(methylene))bis(4-(pyrrolidin-1-yl)thieno[3,2-d]pyrimidin-1-ium) bromide]	21.9 nM	215 to 217 °C	55 ± 4.07%		13300 ± 3820 nM		10 fold
[Br-].[Br-].c1cc2c(s1)c(N1CCCC1)nc[n+]2Cc1ccc(OCCOc2ccc(C[n+]3cnc(N4CCCC4)c4sccc43)cc2)cc1 [Ff-8, 1,1’-(((ethane-1,2-diylbis(oxy))bis(4,1-phenylene))bis(methylene))bis(4-(pyrrolidin-1-yl)thieno[3,2-d]pyrimidin-1-ium) bromide]	35.2 nM	217 to 219 °C	63.1 ± 6.74%				
[Br-].[Br-].c1cc2c(N3CCCCCC3)nc[n+](Cc3ccc(CCCCc4ccc(C[n+]5cnc(N6CCCCCC6)c6ccsc65)cc4)cc3)c2s1 [Ff-35, (1,1’((butane1,4diylbis(4,1phenylene))bis(methylene))bis(4-(azepan-1-yl)thieno[2,3-d]pyrimidin-1-ium)) bromide]	48.4 nM	117 to 119 °C	57.6 ± 12.3%				
[Br-].[Br-].c1cc2c(s1)c(N1CCCC1)cc[n+]2Cc1ccc(CCc2ccc(C[n+]3ccc(N4CCCC4)c4sccc43)cc2)cc1 [Fg-11, 4,4’-((ethane-1,2-diylbis(4,1-phenylene))bis(methylene))bis(7-(pyrrolidin-1-yl)thieno[3,2-b]pyridin-4-ium) bromide]	232 nM	253 to 255 °C	33 ± 1.48%		16500 ± 1430 nM		
[Br-].[Br-].c1cc2c(N3CCCCCC3)nc[n+](Cc3ccc(CCc4ccc(C[n+]5cnc(N6CCCCCC6)c6ccsc65)cc4)cc3)c2s1 [Fg-19, 1,1’-((ethane-1,2-diylbis(4,1-phenylene))bis(methylene))bis(4-(azepan-1-yl)thieno[2,3-d]pyrimidin-1-ium) bromide]	71.5 nM	298 to 300 °C					
